According to patent US10487093B2, “Heterocyclic compounds, in particular 2-oxo-4,4,5,5,6,6,7,7-octahydrobenzoxazole derivatives, and their use as antibacterial compounds” (priority 2016, dated 2019):
≈ marks a conversion by molar mass, not a printed value.

Legend:
[1] = tested on: Acinetobacter baumannii NCTC 13420; assay: MIC, broth microdilution (CLSI) versus planktonic bacteria; assay type: cell-based; conditions: NCTC13420; Acinetobacter baumannii NCTC 13420; 16-20 h; mode of three independent experiments; read-out: MIC, Ab NCTC 13420
[2] = tested on: Enterobacter cloacae NCTC 13406; assay: as above; assay type: cell-based; conditions: NCTC13406; Enterobacter cloacae NCTC 13406; 16-20 h; mode of three independent experiments; read-out: MIC, Ecl NCTC 13406
[3] = tested on: Escherichia coli ATCC 25922; assay: as above; assay type: cell-based; conditions: ATCC25922; Escherichia coli ATCC 25922; 16-20 h; mode of three independent experiments; read-out: MIC, Ec ATCC 25922
E. coli NCTC 13476 = assay: as above; assay type: cell-based; conditions: NCTC13476; Escherichia coli NCTC 13476; 16-20 h; mode of three independent experiments; read-out: MIC, Ec NCTC 13476
[4] = tested on: Haemophilus influenzae ATCC 49247; assay: as above; assay type: cell-based; conditions: ATCC49247; Haemophilus influenzae ATCC 49247; 16-20 h; mode of three independent experiments; read-out: MIC, Hi ATCC 49247
[5] = tested on: Pseudomonas aeruginosa ATCC 27853; assay: as above; assay type: cell-based; conditions: ATCC27853; Pseudomonas aeruginosa ATCC 27853; 16-20 h; mode of three independent experiments; read-out: MIC, Pa ATCC 27853
[6] = tested on: Staphylococcus aureus ATCC 29213; assay: as above; assay type: cell-based; conditions: ATCC29213; Staphylococcus aureus ATCC 29213; 16-20 h; mode of three independent experiments; read-out: MIC, Sa ATCC 29213
[7] = tested on: Streptococcus pneumoniae ATCC 49619; assay: as above; assay type: cell-based; conditions: ATCC49619; Streptococcus pneumoniae ATCC 49619; 16-20 h; mode of three independent experiments; read-out: MIC, Sp ATCC 49619
[8] = tested on: human hepatic cell line (HepG2 ATCC HB-8065); assay: Human cell viability assay (CellTiter-Glo); conditions: Homo sapiens, HepG2, 24 h, read-out: IC50 (μg/mL) HepG2
[9] = tested on: Acinetobacter baumannii ATCC 19606; assay: MIC, broth microdilution (CLSI) versus planktonic bacteria; assay type: cell-based; conditions: ATCC19606; Acinetobacter baumannii ATCC 19606; 16-20 h; mode of three independent experiments; read-out: MIC, Ab ATCC 19606
E. coli ATCC BAA-2452 = assay: as above; assay type: cell-based; conditions: Escherichia coli ATCC BAA-2452; 16-20 h; mode of three independent experiments; read-out: MIC, Ec ATCC BAA 2452
E. coli MG1655 = assay: as above; assay type: cell-based, Escherichia coli; conditions: Escherichia coli, MG1655, read-out: MIC, Ec MG1655 WT
E. coli MG1655 S83L = assay type: cell-based, Escherichia coli; conditions: compared to the isogenic parent strain E. coli MG1655; S83L mutation on DNA gyrase subunit GyrA
E. coli MG1655 D87G = assay type: cell-based, Escherichia coli; conditions: compared to the isogenic parent strain E. coli MG1655; D87G mutation on DNA gyrase subunit GyrA

Structure (SMILES) | MIC [1] [µg/mL] | MIC [2] [µg/mL] | MIC [3] [µg/mL] | MIC (E. coli NCTC 13476) [µg/mL] | MIC [4] [µg/mL] | MIC [5] [µg/mL] | MIC [6] [µg/mL] | MIC [7] [µg/mL] | IC50 [8] [µg/mL] | MIC [9] [µg/mL] | MIC (E. coli ATCC BAA-2452) [µg/mL] | MIC (E. coli MG1655) [µg/mL] | Fold increase in MIC, E. coli MG1655 S83L (E. coli MG1655 S83L) [fold] | Fold increase in MIC, E. coli MG1655 D87G (E. coli MG1655 D87G) [fold]
COc1ccc2ccc(=O)n(CCN(CCN)[C@H]3CC[C@H]4[C@@H](C3)OC(=O)N4c3ccc4c(n3)NC(=O)CO4)c2n1 [Compound 13, 1-(2-{[(3aS,6S,7aR)-2-oxo-3-{3-oxo-2H,3H,4H-pyrido[3,2-b][1,4]oxazin-6-yl}-octahydro-1,3-benzoxazol-6-yl](2-aminoethyl)amino}ethyl)-7-methoxy-1,2-dihydro-1,8-naphthyridin-2-one] | 10 to 100 (≈ 18.2 to 182 µM) | 10 to 100 (≈ 18.2 to 182 µM) | 1 to 10 (≈ 1.82 to 18.2 µM) | 1 to 10 (≈ 1.82 to 18.2 µM) | 10 to 100 (≈ 18.2 to 182 µM) | 1 to 10 (≈ 1.82 to 18.2 µM) | < 1 | 1 to 10 (≈ 1.82 to 18.2 µM) | > 100 |  |  |  |  | 
O=C1COc2ccc(N3C(=O)O[C@@H]4C[C@@H](NCCn5c(=O)cnc6cc(F)c(F)cc65)CC[C@@H]43)nc2N1 [Compound 22, 1-(2-{[(3aS,6S,7aR)-2-oxo-3-{3-oxo-2H,3H,4H-pyrido[3,2-b][1,4]oxazin-6-yl}-octahydro-1,3-benzoxazol-6-yl]amino}ethyl)-6,7-difluoro-1,2-dihydroquinoxalin-2-one] | < 1 | < 1 | < 1 | < 1 | < 1 | 1 to 10 (≈ 1.95 to 19.5 µM) | < 1 | < 1 |  | < 1 | < 1 | < 1 | 2 | 2
NCCOc1ccc2ccc(=O)n(CCN[C@@H]3CC[C@@H]4[C@@H](C3)OC(=O)N4c3ccc4c(n3)NC(=O)CO4)c2c1 [Compound 23, 1-(2-{[(3aR,6R,7aR)-2-oxo-3-{3-oxo-2H,3H,4H-pyrido[3,2-b][1,4]oxazin-6-yl}-octahydro-1,3-benzoxazol-6-yl]amino}ethyl)-7-(2-aminoethoxy)-1,2-dihydroquinolin-2-one] | 10 to 100 (≈ 18.7 to 187 µM) | > 100 | < 1 | 10 to 100 (≈ 18.7 to 187 µM) | > 100 | 1 to 10 (≈ 1.87 to 18.7 µM) | < 1 | 1 to 10 (≈ 1.87 to 18.7 µM) | > 100 |  | 1 to 10 (≈ 1.87 to 18.7 µM) | 1 to 10 (≈ 1.87 to 18.7 µM) | 0.5 | 0.5
O=C1COc2cnc(N3C(=O)O[C@@H]4C[C@H](NCCn5c(=O)cnc6cc(F)c(F)cc65)CC[C@H]43)nc2N1 [Compound 38, 1-(2-{[(3aR,6R,7aR)-2-oxo-3-{7-oxo-6H,7H,8H-pyrimido[5,4-b][1,4]oxazin-2-yl}-octahydro-1,3-benzoxazol-6-yl]amino}ethyl)-6,7-difluoro-1,2-dihydroquinoxalin-2-one] | 1 to 10 (≈ 1.95 to 19.5 µM) | < 1 | < 1 | 1 to 10 (≈ 1.95 to 19.5 µM) | < 1 | 1 to 10 (≈ 1.95 to 19.5 µM) | < 1 | < 1 | 10 to 100 (≈ 19.5 to 195 µM) | 1 to 10 (≈ 1.95 to 19.5 µM) | 1 to 10 (≈ 1.95 to 19.5 µM) | < 1 | 2 | 
N#Cc1cccc(-c2cccc(CN[C@H]3CC[C@H]4[C@H](C3)OC(=O)N4c3ccc4c(n3)NC(=O)CO4)c2)n1 [Compound 57, 6-[3-({[(3aS,6S,7aS)-2-oxo-3-{3-oxo-2H,3H,4H-pyrido[3,2-b][1,4]oxazin-6-yl}-octahydro-1,3-benzoxazol-6-yl]amino}methyl)phenyl]pyridine-2-carbonitrile] | < 1 | 1 to 10 (≈ 2.01 to 20.1 µM) | < 1 | 1 to 10 (≈ 2.01 to 20.1 µM) | < 1 |  | < 1 | < 1 |  | < 1 | 1 to 10 (≈ 2.01 to 20.1 µM) | < 1 | 1 | 1
COc1cc2c(ccc(=O)n2CCN[C@H]2CC[C@H]3[C@H](C2)OC(=O)N3c2ccc3c(n2)NC(=O)CO3)cn1 [Compound 62, 1-(2-{[(3aS,6S,7aS)-2-oxo-3-{3-oxo-2H,3H,4H-pyrido[3,2-b][1,4]oxazin-6-yl}-octahydro-1,3-benzoxazol-6-yl]amino}ethyl)-7-methoxy-1,2-dihydro-1,6-naphthyridin-2-one] | < 1 |  | < 1 | 1 to 10 (≈ 1.97 to 19.7 µM) | 1 to 10 (≈ 1.97 to 19.7 µM) | 10 to 100 (≈ 19.7 to 197 µM) | < 1 | < 1 |  | 1 to 10 (≈ 1.97 to 19.7 µM) | 1 to 10 (≈ 1.97 to 19.7 µM) | 1 to 10 (≈ 1.97 to 19.7 µM) | 1 | 0.5
O=C1COc2ccc(N3C(=O)O[C@@H]4C[C@H](NCCn5c(=O)cnc6cc(F)c(F)cc65)CC[C@H]43)nc2N1 [Compound 70, 1-(2-{[(3aR,6R,7aR)-2-oxo-3-{3-oxo-2H,3H,4H-pyrido[3,2-b][1,4]oxazin-6-yl}-octahydro-1,3-benzoxazol-6-yl]amino}ethyl)-6,7-difluoro-1,2-dihydroquinoxalin-2-one] | < 1 | < 1 | < 1 | < 1 | < 1 | < 1 | < 1 | < 1 | 10 to 100 (≈ 19.5 to 195 µM) |  | < 1 | < 1 | 2 | 4
N#Cc1cnc2ccc(=O)n(CCCN[C@H]3CC[C@H]4[C@H](C3)OC(=O)N4c3ccc4c(n3)NC(=O)CO4)c2c1 [Compound 82, 5-(3-{[(3aS,6S,7aS)-2-oxo-3-{3-oxo-2H,3H,4H-pyrido[3,2-b][1,4]oxazin-6-yl}-octahydro-1,3-benzoxazol-6-yl]amino}propyl)-6-oxo-5,6-dihydro-1,5-naphthyridine-3-carbonitrile] | 1 to 10 (≈ 1.94 to 19.4 µM) | 1 to 10 (≈ 1.94 to 19.4 µM) | < 1 |  | < 1 | 1 to 10 (≈ 1.94 to 19.4 µM) | < 1 | < 1 |  | 1 to 10 (≈ 1.94 to 19.4 µM) | 1 to 10 (≈ 1.94 to 19.4 µM) | < 1 | 0.5 | 1
COc1ccc2ccc(=O)n(CCCN[C@H]3CC[C@H]4[C@H](C3)OC(=O)N4c3ccc4c(n3)NC(=O)CO4)c2n1 [Compound 83, 1-(3-{[(3aS,6S,7aS)-2-oxo-3-{3-oxo-2H,3H,4H-pyrido[3,2-b][1,4]oxazin-6-yl}-octahydro-1,3-benzoxazol-6-yl]amino}propyl)-7-methoxy-1,2-dihydro-1,8-naphthyridin-2-one] | < 1 | < 1 | < 1 | < 1 | < 1 | 1 to 10 (≈ 1.92 to 19.2 µM) | < 1 | < 1 | 10 to 100 (≈ 19.2 to 192 µM) | < 1 | < 1 |  |  | 
O=C1COc2ccc(N3C(=O)O[C@@H]4C[C@H](NCCn5c(=O)cnc6ccc(F)cc65)CC[C@H]43)nc2N1 [Compound 86, 1-(2-{[(3aR,6R,7aR)-2-oxo-3-{3-oxo-2H,3H,4H-pyrido[3,2-b][1,4]oxazin-6-yl}-octahydro-1,3-benzoxazol-6-yl]amino}ethyl)-7-fluoro-1,2-dihydroquinoxalin-2-one] | < 1 | < 1 | < 1 | < 1 | < 1 | 1 to 10 (≈ 2.02 to 20.2 µM) | < 1 | < 1 | 10 to 100 (≈ 20.2 to 202 µM) | < 1 | < 1 |  |  | 
C=CCOc1ccc2ccc(=O)n(CCN[C@H]3CC[C@H]4[C@H](C3)OC(=O)N4c3ccc4c(n3)NC(=O)CO4)c2c1 [Compound 89, 1-(2-{[(3aS,6S,7aS)-2-oxo-3-{3-oxo-2H,3H,4H-pyrido[3,2-b][1,4]oxazin-6-yl}-octahydro-1,3-benzoxazol-6-yl]amino}ethyl)-7-(prop-2-en-1-yloxy)-1,2-dihydroquinolin-2-one] | < 1 | 1 to 10 (≈ 1.88 to 18.8 µM) | < 1 | 1 to 10 (≈ 1.88 to 18.8 µM) | 1 to 10 (≈ 1.88 to 18.8 µM) | 1 to 10 (≈ 1.88 to 18.8 µM) | < 1 | < 1 | 10 to 100 (≈ 18.8 to 188 µM) | < 1 | < 1 |  |  | 
